Test results from patent US12391646B2, “Using adiponectin receptor agonists to treat inflammation and bone diseases in diabetes” (Trustees of Tufts College, priority 2020, dated 2025).

Test system: RAW 264.7 cells in high glucose medium
Assay: Osteoclastogenesis and autophagy of RANKL-treated RAW 264.7 cells in high glucose medium
Format: cell-based
Conditions: for RANKL-induced mRNA expression of Cathepsin K and TRAP: high glucose 25 mM, AdipoRon 20 μM; for LC3 mRNA, LC3II protein and LC3 puncta: high glucose medium with RANKL
Method: FIG. 20 RAW 264.7 cells were treated with RANKL (100 ng/ml) with or without AdipoRon ([…]) or AdipoAI (5 μM) in low (5 mmol/l) glucose, 20 mmol/l D-mannitol or high (25 mmol/l) glucose medium. qRT-PCR analysis of cathepsin K (A), TRAP (B) and microtubule associated protein 1 light chain 3 (LC3) (C), and mRNA expression were calculated (n≥3). (D) Western blot analysis of LC3A/B protein levels normalized to β-actin. (E) The mean of protein/β-actin ratios normalized to 1.0 (RANKL-AdipoRon-AdipoAI-H group) quantified by densitometry. (F) Autophagosome images obtained with laser confocal microscopy after the RAW 264.7 cells were transfected with a GFP-LC3 plasmid and treated with RANKL and AdipoRon or AdipoAI (scale bar=50 μm). Data are shown as mean±SD. *, P<0.05. **P<0.01. ***P<0.001.
FIG. 21 Autophagy inhibitor reverses AdipoAI-inhibited osteoclastogenesis in high glucose medium. RAW 264.7 cells were treated with RANKL (100 ng/ml) in 2 days and with or without AdipoAI (5 μM) for 24 hours followed by 3-methyladenine (3-MA, 2.5 mM) treatment for another 24 hours in high glucose medium. qRT-PCR analysis of cathepsin K (A), TRAP (B) and LC3 (C) mRNA expression were calculated (n≥3). (D) Western blot analysis of LC3A/B protein levels normalized to β-actin. (E) The mean of protein/β-actin ratios normalized to 1.0 (3-MA-, RANKL-, AdipoAI-group) quantified by densitometry. Data are shown as mean±SD. *, P<0.05. **P<0.01. ***P<0.001.
FIG. 22 AdipoAI-induced autophagy of osteoclasts in high glucose medium via AKT1/mTOR signaling pathway. RAW 264.7 cells were induced with RANKL for 2 days and then treated with or without (5 μM) additional 24 hours after serum starvation for 4 hours. Then, the cells were treated with RANKL, AdipoAI or SC79 (5 μM), an AKT activator, for another 24 hours in high glucose medium. qRT-PCR analysis of mRNA expression of cathepsin K (A), TRAP (B) and LC3 (C) were calculated (n≥3). (D) Representative images show the protein expression levels of AKT, p-AKT, AKT1, p-AKT1, mTOR, p-mTOR, and LC3A/B in osteoclasts. Quantitative analysis of bands is shown in (E-K) (n≥3). Data are shown as mean±SD. *, P<0.05. **P<0.01. ***P<0.001. R: RANKL. A, AI: AdipoAI. SC5: SC79 (5 μM).
RAW 264.7 cells (ATCC, Manassas, VA, USA) were cultured and passaged in DMEM supplemented with 10% (v/v) FBS (Invitrogen, Grand Island, NY, USA) and 1% Penicillin-Streptomycin (Gibco, Gaithersburg, MD, USA). For the induction of osteoclastogenesis, RAW 264.7 cells were cultured 24 in α-MEM supplemented with 10% FBS and 1% Penicillin-Streptomycin in the presence of 100 ng/ml RANKL (Peprotech, Rocky Hill, NJ, USA) for 2 days, and subsequently treated or not with AdipoRon or AdipoAI for another 2 days changing cell culture medium every 2 days. After a total of […] of culture, morphologic examination was performed, as was mRNA and protein expression. To simulate high glucose environment in vitro, α-MEM was supplemented with D-glucose to 25 mmol/l (high glucose) or 5 mmol/l (physiological glucose). 20 mmol/l D-mannitol served as an osmotic control.
Total RNA was isolated from cell cultures and gingival soft tissues using TriZol reagent (Life Technologies, Carlsbad, CA, USA) according to the manufacturer's instructions^24. Reverse transcription was performed using the PrimeScript RT Master Mix (Takara Bio, Otsu, Japan) and real-time-qPCR analyses were performed using SYBR-Green Real-Time PCR Master Mix (Takara Bio, Otsu, Japan) as described earlier^27.
Total cellular extracts were prepared using RIPA Lysis and Extraction Buffer containing three Protease Inhibitors (Santa Cruz, Dallas, TX, USA). Western blot analyses were performed as previously described 24. Antibodies for β-actin (1:2000) and GAPDH (1:5000), LC3A/B (1:1000), AKT1 (1:1000), p-AKT1 (1:1000), AKT (1:1000), p-AKT (1:1000), mTOR (1:1000), p-mTOR (1:1000) were purchased from Abcam and Cell Signaling Technology, respectively. SC79, an AKT activator was purchased from Sigma Aldrich. […]

[1] = AdipoAI 5 μM, RANKL, high glucose medium

SMILES | expression of AKT [1] | expression of LC3II [1] | reduction of phosphorylation of AKT [1] [%] | reduction of phosphorylation of AKT1 [1] [%] | reduction of phosphorylation of mTOR [1] [%] | RANKL-induced mRNA expression of Cathepsin K and TRAP (AdipoAI 5 μM) | LC3 mRNA, LC3II protein and LC3 puncta
COc1ccc(CN2CCC(NC(=O)COc3ccc(C(=O)c4ccc(Cl)cc4)cc3)CC2)cc1 [Compound 3] | inhibits the expression of AKT | promotes the expression of LC3II | 21 | 40 | 25 | decreased the RANKL-induced mRNA expression of osteoclastogenesis markers | increased the mRNA expression of LC3, protein expression of LC3II and LC3 puncta
O=C(COc1ccc(C(=O)c2ccccc2)cc1)NC1CCN(Cc2ccccc2)CC1 [AdipoRon, reference compound] | – | – | – | – | – | decreased the RANKL-induced mRNA expression of osteoclastogenesis markers | increased the mRNA expression of LC3, protein expression of LC3II and LC3 puncta
